“Also recorded” adds a separate entry of the source.
Experiments:
Format in all cases: in vivo, rat
[1] = test system: MADB106 cells; experiment: Pharmacologic modification of autonomic influence on immune system and lung metastasis
Description: 48 β-EP implanted (SC) male Fischer rats and 48 control (C) male Fischer rats were divided into 8 groups, treated with saline, Naloxone (10 mg/kg body weight), Metaproterenol (MP, 0.8 mg/kg body weight), or Methyllycaconitine (MLA, 2.5 mg/kg body weight), respectively. Animals were treated with drugs for 8 days. In the second day of drug injection, animals were inoculated with MADB106 cells (100,000/0.2 ml/rat). 24 hours after tumor cell inoculation, blood was collected by orbital puncture. Plasma was collected, and PBMCs were separated for migration assay and NK cytolytic assay. 7 days after tumor inoculation, blood was taken again by orbital puncture. Plasma was collected, and PBMCs were separated for migration assay and T cell cytolytic assay. After 6 weeks, animals were sacrificed, and brains, spleens and blood were frozen. Lungs were fixed in formalin and processed to H&E staining. […] However, 7 days after tumor inoculation, there isn't a clear pattern of T cell cytolytic activity and macrophage migration activity between groups (FIGS. 30B and 30D).
It was hypothesized that the beneficial effect of BEP neuron transplants on immune function is regulated through autonomic nervous system, and that central BEP modulate peripheral immune function by inhibiting the sympathetic activity and activating the parasympathetic activity. Metaproterenol (MET) is an agonist for β-receptors, which are a class of G protein-coupled receptors that are targets of the catecholamines, especially norepinephrine and epinephrine (Dokur et al. (2004) J Neuroimmunol 5:148-57; Page et al. (2008) J Neuroimmunol 193:113-9). Methyllycaconitine (MLA) is a selective antagonist of α7 nicotine acetylcholine receptor (α7 nAChR; Wu et al. (2011) Clin Cancer Res 17:3533-41). By injecting MET and MLA i.p., the stimulation of sympathetic nerves and inhibition of parasympathetic nerves was mimicked. Naloxone, an opiate receptor antagonist, was used to test whether BEP neuronal effects is acted via opiodergic receptor (Boyadjieva et al. (2006) Alcohol Clin Exp Res 30:1761-7). Forty-eight BEP neuron-transplanted Fischer rats and 48 control rats were divided into 8 groups and treated with saline, naloxone (10 mg/kg body weight), MET (0.8 mg/kg body weight), or MLA (2.5 mg/kg body weight) for 8 days (the doses used for these drugs are recognized as effective biological doses). A day after the first injection of these agents, animals were inoculated with MADB106 cells (100,000/0.2 mL/rat). Twenty-four hours after tumor cell inoculation, blood was collected by orbital puncture. Plasma was collected, and peripheral blood mononuclear cells (PBMC) were separated for migration assay and NK cytolytic assay. These animals continued receiving the blocker treatments for 7 days. After 4 weeks they were sacrificed, their lungs were fixed in formalin and processed to H&E staining for determination of cancer pathology. Brain tissues were processed for verification of the site and viability of BEP cell transplantation.

[2] = test system: MADB106 cells; experiment: MADB106 lung metastasis / lung tumor retention; conditions: naloxone 1 mg/kg every 12 hours, 3 times
Description: A method for lung metastasis was adapted using MADB106 breast cancer cells, a NK-sensitive cell line widely used for lung metastasis study. Animals were anesthetized, and 100,000/0.2 ml/rat of MADB106 cells suspended in media were inoculated into jugular vein. After 4˜6 weeks, 70˜80% of inoculated animals developed tumor at the position of lung and/or neck, where the tumor cells were inoculated into the jugular vein.
30 female Fischer rats were implanted with control, cAMP (10 μM) or cAMP (5 μM)+PACAP (5 μM) nanospheres into 3rd ventricle. 2 weeks later, half of the animals were randomly assigned to treatment with Naloxone (1 mg/kg body every 12 hours) for 3 times. After the second injection of Naloxone, animals were anesthetized and inoculated with 100,000/0.2 ml/rat MADB106 cells. 2 months later, animals were sacrificed, and lungs were fixed and sectioned for histology diagnosis.
MADB106 cells, a Fischer 344 rat mammary adenocarcinoma cell line maintained in DMEM containing 10% fetal calf serum, was used. Female Fischer-344 rats were transplanted with BEP cell transplants or control cell transplants at 50 days of age. After about 2 weeks, these PVN cell-transplanted rats were inoculated with MADB106 tumor cells (100,000 cells/0.2 mL/rat) into jugular vein under sodium Nembutal solution (50 mg/kg) anesthesia. […]

[3] = Plasma corticosterone after nanosphere implantation; conditions: naloxone 1 mg/kg i.p., 12 hours
Description: 2 weeks later, half of the animals were i.p. injected with naloxone (1 mg/kg body weight), which is aμ-opioid receptor antagonist, specifically blocking the effect of β-EP. 12 hours later, animals were anesthetized with Nembutal, and blood was drawn from jugular vein. Plasma corticosterone level was measured with ELISA.
2 months later, animals were anesthetized, and 1 ml of blood was drawn from jugular vein.

[4] = 24 hours after MADB106 inoculation, naloxone 10, MP/MET 0.8, MLA 2.5 mg/kg or saline

With C=CCN1CC[C@]23c4c5ccc(O)c4O[C@H]2C(=O)CC[C@@]3(O)[C@H]1C5 [naloxone] the “PBMC NK cell activity” value [1, 4] was “moderate or strong inhibitory effect”, the macrophage migration activity [1, 4] was “moderate or strong inhibitory effect” and the “effect on β-EP elimination of tumor cell lung retention” value ([1]; β-EP transplanted Fischer rats, naloxone 10, MP/MET 0.8, MLA 2.5 mg/kg for 8 days) was “stopped the effect of β-EP; also recorded: prevented, at various degrees”. The “effect on nanosphere-reduced lung tumor retention” value [2] was “reversed the effect of nanosphere” and the “effect on nanosphere-lowered plasma corticosterone” value [3] was “blocked the effect of nanospheres”.

Source: US20120114706A1, “Endorphin Therapy Compositions and Methods of Use Thereof” (priority 2008, published 2012)
